Test results published in patent US11242347B2, “2-phenyl-3,4-dihydropyrrolo[2,1-Ff] [1,2,4]triazinone derivatives as phosphodiesterase inhibitors and uses thereof” (TOPADUR PHARMA AG, priority 2015, dated 2022).
Where two headings read alike, the source gives them in different places. One block for each compound: values may come before it.

What was measured:
[1] = molecular target: human phosphodiesterase-5 (PDE5 enzyme isolated from human platelets) (Homo sapiens (Human), UniProt O76074); assay: PDE5 assay: formation of 5′GMP from cGMP (SPA)
Protocol: Evaluation of the effects of compounds of the present invention on the activity of the human phosphodiesterase-5 quantified by measuring the formation of 5′GMP from cGMP using PDE5 enzyme isolated from human platelets.
Thereafter, the reaction is initiated by addition of the enzyme and the mixture is incubated for 60 min at 22° C.
For basal control measurements, the enzyme is omitted from the reaction mixture. Following incubation SPA beads are added. After 20 min at 22° C. under shaking, the amount of [3H]5′GMP is quantified with a scintillation counter (Topcount, Packard).
The standard inhibitory reference compound is dipyridamole, which is tested in each experiment at several concentrations to obtain an inhibition curve from which its IC50 value is calculated.

[2] = test system: phenylephrine-precontracted rat aortic rings; assay: Isometric tension studies: relaxation of phenylephrine-precontracted rat aortic rings; details: for IC40: concentration where 40% relaxation was achieved
Protocol: After 1 week of acclimatization, rats were anesthetized. Appropriate depth of anesthesia was determined by the absence of the leg flexor response and the eyelid reflex. Then, the thorax was quickly opened by a midline incision, and the rat was sacrificed by cutting the heart and exsanguination.
Indomethacin (1 μM) was added to the saline solution.
Eligible rings were then washed several times to restore tension to the baseline level.
In some experiments, the entire length of the thoracic aorta was functionally denuded of the endothelial layer by gently scraping the luminal surface with a 1.5 mm glass rod. […] Rings were then washed several times to restore tension to the baseline level.
Indomethacin (1 μM) was added to the saline solution. […] Only vessels with at least 60% relaxation to 1 μM ACh from the tension with 300 nM were eligible.
The preparations were allowed to equilibrate for 60 min in Krebs with high glucose (25 mM) before contraction to a new single concentration of PE (300 nM).
Finally, sodium nitroprusside (0.1 mM) was added, in order to obtain maximum relaxation of arterial rings.
The amount of relaxation (percent values as means±SEM) was quantified as percent relaxation from the tension (plateau) achieved with phenylephrine.
Data are presented as mean±SEM. Statistical analysis of results has been performed by analysis of variance (ANOVA) either parametric or non-parametric (Kruskal-Wallis), followed by Bonferroni test or Dunn tests as appropriate (GraphPad Software Inc, San Diego, Calif., USA). Significance was accepted when P<0.05. Non-linear regression was conducted with GraphPad Software).

[3] = test system: human pulmonary artery smooth muscle cells (hPASMC); assay: Measurements of cGMP in human pulmonary artery smooth muscle cells (hPASMC); format: cell-based; details: incubation 15 or 30 min; compared with sildenafil
Protocol: Human Pulmonary Artery Smooth Muscle Cells (hPASMC) were purchased from Clonetics™ Lonza (Lonza, reference number CC-2581) and cultured in Clonetics' smooth muscle growth medium (Clonetics™ SmGM™-2 with BulletKit™ growth factor supplements (Lonza, reference number CC-3182) at 37° C. in 5% CO2. Culture medium was replaced each 48 hours. Cells were grown in 75 cm^2 culture plates.
48 h before the experiments, cells were trypsinized (Trypsin kit One ReagentPack™ (CC-5034), Lonza) and plated in 96 well plates precoated with collagen I at 10000 cells per well. 24 h before the experiments culture medium was replaced by serum-reduced (0.5% FBS) medium.
Measurements of intracellular cGMP were performed using the Amersham cGMP EIA System (GE Healthcare, RPN226) following the instructions of the manufacturer. The assay has a sensitivity of 2 fmol cGMP per well. Briefly, incubations were terminated by adding Amersham's lysis buffer 1 and cells left for 10 min under agitation to ensure complete lysis. cGMP in samples was then acetylated using triethylamine and acetic anhydride and determined by a competitive ELISA. The ELISA is based on the competition between acetylated cGMP in cell culture lysates and a peroxidase-labelled cGMP conjugate for limited binding sites on a cGMP specific antiserum immobilized on pre-coated 96 well MTP. cGMP was determined based on a standard curve. […]

[4] = 5.0E−09M, percent inhibition of the control enzyme activity
[5] = Rattus norvegicus, High Glucose (25 mM)
[6] = Rattus norvegicus, Intact Endothelium (E+)
[7] = Rattus norvegicus, L-NAME (100 μM)
[8] = Rattus norvegicus, Without Endothelium

Compound: CCCc1c(/C=N/O)c(C)c2c(=O)[nH]c(-c3cc(S(=O)(=O)N4CCC(CCO[N+](=O)[O-])CC4)ccc3OCC)nn12 [Compound 1am, (E)-2-(1-(4-ethoxy-3-(6-((hydroxyimino)methyl)-5-methyl-4-oxo-7-propyl-3,4-dihydropyrrolo[1,2-f][1,2,4]triazin-2-yl)phenylsulfonyl)piperidin-4-yl)ethyl nitrate]
% inhibition at 5.0E−09M [1]: 25.1%
IC50 [1]: 66 nM

Compound: CCCc1c(/C=N/O)c(C)c2c(=O)[nH]c(-c3cc(S(=O)(=O)N4CCN(CCCO[N+](=O)[O-])CC4)ccc3OCC)nn12 [Compound 1ao, (E)-3-(4-(4-ethoxy-3-(6-((hydroxyimino)methyl)-5-methyl-4-oxo-7-propyl-3,4-dihydropyrrolo[1,2-f][1,2,4]triazin-2-yl)phenylsulfonyl)piperazin-1-yl)propyl nitrate]
IC50 [1]: 12 nM
% inhibition at 5.0E−09M [1, 4]: 70.6%

Compound: CCCc1cc(C)c2c(=O)[nH]c(-c3cc(S(=O)(=O)N4CCN(CCCO)CC4)ccc3OCC)nn12 [Compound 1ap, 2-(2-ethoxy-5-((4-(3-hydroxypropyl)piperazin-1-yl)sulfonyl)phenyl)-5-methyl-7-propylpyrrolo [2,1-f][1,2,4]triazin-4(3H)-one]
IC50 [1]: 2.8 nM
% inhibition at 5.0E−09M [1, 4]: 69.2%

Compound: CCCOc1ccc(S(=O)(=O)N2CCC(CCO[N+](=O)[O-])CC2)cc1-c1nn2c(CCC)c(/C=N\O)c(C)c2c(=O)[nH]1 [Compound 1aq, (Z)-2-(1-((3-(6-((hydroxyimino)methyl)-5-methyl-4-oxo-7-propyl-3,4-dihydropyrrolo[2,1-f][1,2,4]triazin-2-yl)-4-propoxyphenyl)sulfonyl)piperidin-4-yl)ethyl nitrate]
% inhibition at 5.0E−09M [1, 4]: 1.3%

Compound: CCCc1c(CO)c(C)c2c(=O)[nH]c(-c3cc(S(=O)(=O)N4CCN(C)CC4)ccc3OCC)nn12 [Compound 1b, 2-(2-ethoxy-5-((4-methylpiperazin-1-yl)sulfonyl)phenyl)-6-(hydroxymethyl)-5-methyl-7-propylpyrrolo[2,1-f][1,2,4]triazin-4(3H)-one]
IC50 [1]: 12 nM
% inhibition at 5.0E−09M [1, 4]: 34.0%

Compound: CCCOc1ccc(S(=O)(=O)N2CCN(C)CC2)cc1-c1nn2c(CCC)c(/C=N/OC)c(C)c2c(=O)[nH]1 [Compound 1o, (E)-5-methyl-2-(5-((4-methylpiperazin-1-yl)sulfonyl)-2-propoxyphenyl)-4-oxo-7-propyl-3,4-dihydropyrrolo[2,1-f][1,2,4]triazine-6-carbaldehyde O-methyl oxime]
% inhibition at 5.0E−09M [1, 4]: 83.0%

Compound: CCCc1c(C(O)CC(=O)NO)c(C)c2c(=O)[nH]c(-c3cc(S(=O)(=O)N4CCN(C)CC4)ccc3OCC)nn12 (centres unmarked) [Compound 1t, 3-(2-(2-ethoxy-5-((4-methylpiperazin-1-yl)sulfonyl)phenyl)-5-methyl-4-oxo-7-propyl-3,4-dihydropyrrolo[2,1-f][1,2,4]triazin-6-yl)-N,3-dihydroxy propanamide]
% inhibition at 5.0E−09M [1, 4]: 44.9%

Compound: CCCc1c(C(O)CC#N)c(C)c2c(=O)[nH]c(-c3cc(S(=O)(=O)N4CCN(C)CC4)ccc3OCC)nn12 (centres unmarked) [Compound 1u, 3-(2-(2-ethoxy-5-((4-methylpiperazin-1-yl)sulfonyl)phenyl)-5-methyl-4-oxo-7-propyl-3,4-dihydropyrrolo[2,1-f][1,2,4]triazin-6-yl)-3-hydroxy propanenitrile]
IC50 [1]: 1.5 nM
% inhibition at 5.0E−09M [1, 4]: 50.3%

Compound: CCCc1nn(C)c2c(=O)[nH]c(-c3cc(S(=O)(=O)N4CCN(C)CC4)ccc3OCC)nc12 [sildenafil, reference compound]
IC40 ([2]; High Glucose (25 mM)): 826.989 nM
IC40 ([2]; Intact Endothelium (E+)): 0.194 nM
IC40 ([2]; L-NAME (100 μM)): 95.659 nM
EC50 [2, 5]: 20.4 nM
Emax [2, 5]: 49.1%
EC50 [2, 6]: 0.186 nM
Emax [2, 6]: 79.3%
EC50 [2, 7]: 5.8 nM
Emax [2, 7]: 51.4%
EC50 [2, 8]: 20.6 nM
Emax [2, 8]: 36.4%
IC40 ([2]; Without Endothelium): >1000 nM

Compound: (E)-2-(4-(4-ethoxy-3-(6-((2-hydroxyethoxyimino)methyl)-5-methyl-4-oxo-7-propyl-3,4-dihydropyrrolo[1,2-f][1,2,4]triazin-2-yl)phenylsulfonyl)piperazin-1-yl)ethyl nitrate [Compound 1ak]
% inhibition at 5.0E−09M [1]: 8.3%

Compound: (E)-2-(4-(4-ethoxy-3-(6-((methoxyimino)methyl)-5-methyl-4-oxo-7-propyl-3,4-dihydropyrrolo[1,2-f][1,2,4]triazin-2-yl)phenylsulfonyl)piperazin-1-yl)ethyl nitrate [Compound 1ai]
% inhibition at 5.0E−09M [1]: 0.3%

Continued, in another order:

% inhibition at 5.0E−09M [1, 4]: 77.6%
Compound: CCCc1c(/C=N/O)c(C)c2c(=O)[nH]c(-c3cc(S(=O)(=O)N4CCN(C)CC4)ccc3OCC)nn12 [Compound 1a, (E)-2-(2-ethoxy-5-((4-methylpiperazin-1-yl)sulfonyl)phenyl)-5-methyl-4-oxo-7-propyl-3,4-dihydropyrrolo[2,1-f][1,2,4]triazine-6-carbaldehyde oxime]

% inhibition at 5.0E−09M [1, 4]: 74.5%
Compound: CCCc1c(/C=N/O)c(C)c2c(=O)[nH]c(-c3cc(S(=O)(=O)N4CCN(CCO[N+](=O)[O-])CC4)ccc3OCC)nn12 [Compound 1af, (E)-2-(4-((4-ethoxy-3-(6-((hydroxyimino)methyl)-5-methyl-4-oxo-7-propyl-3,4-dihydropyrrolo[2,1-f][1,2,4]triazin-2-yl)phenyl)sulfonyl)piperazin-1-yl)ethyl nitrate]

% inhibition at 5.0E−09M [1, 4]: 84.9%
Compound: CCCc1c(/C=N/O)c(C)c2c(=O)[nH]c(-c3cc(S(=O)(=O)N4CCC(CCO)CC4)ccc3OCC)nn12 [Compound 1al, (E)-2-(2-ethoxy-5-(4-(2-hydroxyethyl)piperidin-1-ylsulfonyl)phenyl)-5-methyl-4-oxo-7-propyl-3,4-dihydropyrrolo[1,2-f][1,2,4]triazine-6-carbaldehyde oxime]

% inhibition at 5.0E−09M [1, 4]: 84.9%
Compound: CCCc1c(/C=N/O)c(C)c2c(=O)[nH]c(-c3cc(S(=O)(=O)N4CCN(CCCO)CC4)ccc3OCC)nn12 [Compound 1an, (E)-2-(2-ethoxy-5-(4-(3-hydroxypropyl)piperazin-1-ylsulfonyl)phenyl)-5-methyl-4-oxo-7-propyl-3,4-dihydropyrrolo[1,2-f][1,2,4]triazine-6-carbaldehyde oxime]

% inhibition at 5.0E−09M [1, 4]: 33.0%
Compound: CCCOc1ccc(S(=O)(=O)N2CCN(CCO)CC2)cc1-c1nn2c(CCC)c(CO)c(C)c2c(=O)[nH]1 [Compound 1n, 2-(5-((4-(2-hydroxyethyl)piperazin-1-yl)sulfonyl)-2-propoxyphenyl)-6-(hydroxymethyl)-5-methyl-7-propylpyrrolo[2,1-f][1,2,4]triazin-4(3H)-one]

EC50 ([2]; High Glucose (25 mM)): 2.79 nM
EC50 ([2]; Intact Endothelium (E+)): 0.0074 nM
EC50 ([2]; L-NAME (100 μM)): 0.935 nM
EC50 ([2]; Without Endothelium): 5.94 nM
Compound: CCCOc1ccc(S(=O)(=O)N2CCC(CCO)CC2)cc1-c1nn2c(CCC)c(/C=N/O)c(C)c2c(=O)[nH]1 [Compound 1r, (E)-2-(5-((4-(2-hydroxyethyl)piperidin-1-yl)sulfonyl)-2-propoxyphenyl)-5-methyl-4-oxo-7-propyl-3,4-dihydropyrrolo[2,1-f][1,2,4]triazine-6-carbaldehyde oxime]
Emax ([2]; High Glucose (25 mM)): 51%
IC40 ([2]; High Glucose (25 mM)): 89.295 nM
Emax ([2]; Intact Endothelium (E+)): 91.9%
IC40 ([2]; Intact Endothelium (E+)): 0.0038 nM
Emax ([2]; L-NAME (100 μM)): 60.4%
IC40 ([2]; L-NAME (100 μM)): 2.982 nM
Emax ([2]; Without Endothelium): 39.8%
IC40 ([2]; Without Endothelium): >1000 nM
relaxation of rat aortic rings, result in words ([2]; intact endothelium (FIG. 2A)): more potent and effective than Sildenafil
cGMP formation in hPASMC, activity in words [3]: significantly higher activity as compared to the reference inhibitor sildenafil

% inhibition at 5.0E−09M [1, 4]: 75.5%
Compound: CCCc1c(C=O)c(C)c2c(=O)[nH]c(-c3cc(S(=O)(=O)N4CCN(CCO)CC4)ccc3OCC)nn12 [Compound 1w, 2-(2-ethoxy-5-((4-(2-hydroxyethyl)piperazin-1-yl)sulfonyl)phenyl)-5-methyl-4-oxo-7-propyl-3,4-dihydropyrrolo[2,1-f][1,2,4]triazine-6-carbaldehyde]
